Several values for one entry are separate records, joined by “and”; a condition that tells them apart may be missing. Equal values may be shown once.
What was measured:
[1] = high dosage long-term oral administration; cited from earlier work
[2] = test system: E. coli; assay: Sensitivity of E. coli to EGCg (dilution method, MIC); format: cell-based; details: E. coli 1×10^7 CFU/ml, 37 degrees Celsius, 24 hours, static
Procedure: Sensitivity of E. coli to EGCg was examined by a general sensibility test method (dilution method). E. coli suspensions (1×10^7 CFU/ml), in which gradually diluted (0.16, 0.31, 0.63, 1.25, 2.5, 5.0 mM) epigallocatechin gallate (EGCg) solutions were mixed, were placed in a culture plate and incubated at 37 degrees Celsius for 24 hours under a static condition. Minimal inhibitory concentration (MIC) was defined as the smallest EGCg concentration in which no bacteria growth is recognized macroscopically.

[3] = test system: E. coli; details: comparison among catechins; cited from earlier work
[4] = test system: E. coli in biofilm; assay: Effect of EGCg on living microbes after biofilm formation; format: cell-based; details: 24 hours biofilm, then 24 hours exposure; listed as epigallocatechin gallate (EGCg)
Procedure: Biofilms were formed on polyurethane surfaces after incubating 8 mm diameter polyurethane discs placed in a culture plate with an E. coli suspension (2×10^3 CFU/ml) under a static condition at 37 degrees Celsius for 24 hours. After adding solutions with various degrees of epigallocatechin gallate (EGCg) concentration (0-50 mM) to the biofilm surfaces that were formed, they were exposed for another 24 hours. After the polyurethane discs were taken out, and washed with a phosphate buffer solution gently, they were moved to a 2 ml phosphate buffer solution and sonicated to detach adhered E. coli. Viable E. coli cell count in this liquid was counted by the plate count method. […] These levels of concentration are much higher compared to the Example 1 where catechin was placed from the beginning of incubation.

[5] = test system: E. coli; assay: Inhibitory effect of EGCg on biofilm formation on polyurethane discs (static, plate count); format: cell-based; details: E. coli 2×10^3 CFU/ml, 37 degrees Celsius, 24 hours, listed as epigallocatechin gallate (EGCg)
Procedure: 8 mm diameter disc shaped polyurethanes were cultured with an E. coli suspension (2×10^3 CFU/ml) which was mixed with various concentrations of epigallocatechin gallate (EGCg) (0-0.2 mM) under a static condition at 37 degrees Celsius for 24 hours in a culture plate. After incubations, the polyurethane discs were taken out, and having been washed in a phosphate buffer gently, they were moved to a 2 ml phosphate buffer, where they were sonicated to detach the adhered E. coli. Viable E. coli cell counts in the liquid were calculated by the plate count method.

For `O=C(O[C@@H]1Cc2c(O)cc(O)cc2O[C@@H]1c1cc(O)c(O)c(O)c1)c1cc(O)c(O)c(O)c1` [EGCg, epigallocatechin gallate], the “side effects / safety to the human body” value [1] is given as “no side effect has been reported”, the “minimal inhibitory concentration (MIC)” value [2] is given as 0.63 mM and 287 μg/ml and the “antibacterial action / minimal inhibitory concentration against E. coli, among the catechins” value [3] is given as “smallest minimal inhibitory concentration against E. coli”. For the same compound, the “concentration at which E. coli in biofilm were exterminated completely” value [4] was 50 mM and 23 mg/ml, the “concentration at which viable cell counts in formed biofilm decreased significantly” value [4] was ≥ 8 mM and ≥ 3.7 mg/ml and the “concentration at which biofilm formation is inhibited completely” value [5] was ≥ 0.15 mM and ≥ 0.069 mg/ml. For the same compound, the “concentration at which biofilm formation is inhibited significantly” value [5] was ≥ 0.12 mM and ≥ 0.055 mg/ml.

— patent US8540766B2, “Biofilm formation inhibitor and treatment device thereof” (Kyushu University, National University Corporation, priority 2004, dated 2013)
